Experimental data: US10308916B2, “Omega-transaminase mutants with activity improvements toward ketones and methods for producing optically pure amines” (Industry-Academic Cooperation Foundation, Yonsei University, priority 2015, dated 2019)
Read-outs that look alike come from different tables or passages of the source.

Key:
Assay type in all cases: biochemical
OATA W58L [1] = details: pH 7
OATA W58L [2] = system: OATA W58L
OATA W58A [3] = system: OATA W58A
OATA W58L [4] = system: OATA W58L; remark: listed apart in the source
OATA W58I = details: pH 7
OATA W58A [5] = details: pH 7
OATA W58M = details: pH 7
OATA W58V = details: pH 7
OATA L57A/W58A/V154A [6] = system: OATA L57A/W58A/V154A
OATA L57A/W58A [7] = system: OATA L57A/W58A
OATA L57A [8] = system: OATA L57A
OATA L57A/W58A/V154A [9] = system: OATA L57A/W58A/V154A; remark: listed apart in the source
OATA L57A/W58A [10] = system: OATA L57A/W58A; remark: listed apart in the source
OATA L57C/W58L/I261A = system: OATA L57C/W58L/I261A
OATA L57A [11] = system: OATA L57A; remark: listed apart in the source
OATA W58L [12] = system: OATA W58L; remark: listed apart in the source

Compound	Relative activity to acetophenone, OATA W58L (OATA W58L [1]) [%]	Relative reactivity, OATA W58A (OATA W58A [3]) [%]	Relative reactivity, OATA W58L (OATA W58L [4]) [%]	Relative activity to acetophenone, OATA W58I (OATA W58I) [%]	Relative activity to acetophenone, OATA W58A (OATA W58A [5]) [%]	Relative activity to acetophenone, OATA W58M (OATA W58M) [%]	Relative activity to acetophenone, OATA W58V (OATA W58V) [%]	further results
1-acetonaphthone [Ketone 1i]	47							Conversion (%) OATAW58L (OATA W58L [2]): 75%
CC(N)CO (racemic) [DL-Alaninol]		13	39					
CC(C)C(C)N (centres unmarked) [1,2-Dimethylpropylamine]		101	305					
CC(C)CC(C)N (centres unmarked) [1,3-Dimethylbutylamine]		173	283					
COCC(C)N (centres unmarked) [1-Methoxy-2-propylamine]		126	119					
CC(N)CCc1ccccc1 (centres unmarked) [1-Methyl-3-phenylpropylamine]		151	202					
CCC(=O)CO [1-hydroxy-2-butanone]				16	9	21	8	
CC(C)(C)C(N)c1ccccc1 (centres unmarked) [2,2-Dimethyl-1-phenylpropan-1-amine]		3	2					
CCCC(C)N (centres unmarked) [2-Aminopentane]		194	272					
O=C(CO)c1ccccc1 [2-hydroxyacetophenone]				73	61	65	70	
CCC(=O)C(=O)O [2-oxobutanoic acid]								Relative activity, OATA L57A/W58A/V154A (OATA L57A/W58A/V154A [6]): 852%; fold increase in reaction rate compared to OATA L57A (OATA L57A/W58A/V154A [6]): 25; Relative activity, OATA L57A/W58A (OATA L57A/W58A [7]): 290%; fold increase in reaction rate compared to OATA L57A (OATA L57A/W58A [7]): 8; Relative activity, OATA L57A (OATA L57A [8]): 34%
CCCCC(=O)C(=O)O [2-oxohexanoic acid]								Relative activity, OATA L57A/W58A/V154A (OATA L57A/W58A/V154A [6]): 114%; Relative activity, OATA L57A/W58A (OATA L57A/W58A [7]): 49%; Relative activity, OATA L57A (OATA L57A [8]): 15%
CCCCCCC(=O)C(=O)O [2-oxooctanoic acid]								Relative activity, OATA L57A/W58A/V154A (OATA L57A/W58A/V154A [6]): 21%; Relative activity, OATA L57A/W58A (OATA L57A/W58A [7]): 7%; Relative activity, OATA L57A (OATA L57A [8]): 2%
CCCC(=O)C(=O)O [2-oxopentanoic acid]								Relative activity, OATA L57A/W58A/V154A (OATA L57A/W58A/V154A [6]): 206%; Relative activity, OATA L57A/W58A (OATA L57A/W58A [7]): 103%; Relative activity, OATA L57A (OATA L57A [8]): 40%
CC(=O)C(C)O (centres unmarked) [3-hydroxy-2-butanone]				23	20	32	29	
CC(C)C(=O)C(=O)O [3-methyl-2-oxobutyric acid]								Relative activity, OATA L57A/W58A/V154A (OATA L57A/W58A/V154A [6]): 11%
CC(N)c1ccc(F)cc1 (stereo not drawn) [4-Fluoro-α-methylbenzylamine]		117	283					
CC(=O)CCO [4-hydroxy-2-butanone]				20	17	29	20	
C[C@H](N)c1cccc2ccccc12 [(S)-1-(1-naphthyl)ethylamine]		0.7	2					Relative activity, OATA L57A/W58A/V154A (OATA L57A/W58A/V154A [9]): 60%; Relative activity, OATA L57A/W58A (OATA L57A/W58A [10]): 18%
C[C@H](N)C1CC1 [(S)-1-Cyclopropylethylamine]		79	233					
N[C@H]1CCc2ccccc21 [(S)-1-aminoindan]		100	54					
CCCC[C@H](C)N [(S)-2-aminohexane]		116	306					

Compound	Relative activity to acetophenone, OATA W58L (OATA W58L [1]) [%]	Relative reactivity, OATA W58A (OATA W58A [3]) [%]	Relative reactivity, OATA W58L (OATA W58L [4]) [%]	Relative activity to acetophenone, OATA W58I (OATA W58I) [%]	Relative activity to acetophenone, OATA W58A (OATA W58A [5]) [%]	Relative activity to acetophenone, OATA W58M (OATA W58M) [%]	Relative activity to acetophenone, OATA W58V (OATA W58V) [%]	further results
CCCCCC[C@H](C)N [(S)-2-aminooctane]		99	255					
COc1ccc([C@H](C)N)cc1 [(S)-4-methoxy-α-methylbenzylamine]		44	98					
Cc1ccc([C@H](C)N)cc1 [(S)-α,4-dimethylbenzylamine]		45	78					
CC[C@H](N)c1ccccc1 [(S)-α-ethylbenzylamine]		44	20					Relative activity, OATA L57A/W58A/V154A (OATA L57A/W58A/V154A [9]): 707%; Relative activity, OATA L57A/W58A (OATA L57A/W58A [10]): 202%
CC(=O)c1ccc(C)cc1 [Ketone 1d, 4-methylacetophenone]	51			74	56	68	52	Relative activity, OATA L57C/W58L/I261A (OATA L57C/W58L/I261A): 1,096%; Conversion (%) OATAW58L (OATA W58L [2]): 91%
COc1ccc(C(C)=O)cc1 [Ketone 1e, 4-methoxyacetophenone]	34			38	30	42	30	Relative activity, OATA L57C/W58L/I261A (OATA L57C/W58L/I261A): 4,017%
O=C1CCc2ccccc21 [Ketone 1g, 1-indanone]	2			16	15	20	17	Relative activity, OATA L57C/W58L/I261A (OATA L57C/W58L/I261A): 609%; Relative activity, OATA L57A (OATA L57A [11]): 0.6%
O=C1CCCc2ccccc21 [Ketone 1h, α-tetralone]	0.7			16	19	17	12	Relative activity, OATA L57C/W58L/I261A (OATA L57C/W58L/I261A): 243%
CCCC(C)=O [Ketone 1j, 2-pentanone]	141			21	15	25	28	
CCCCC(C)=O [Ketone 1k, 2-hexanone]	281			54	52	57	62	Conversion (%) OATAW58L (OATA W58L [2]): 93%
CCCCCCC(C)=O [Ketone 1l, 2-octanone]	209			73	122	81	140	Relative activity, OATA L57C/W58L/I261A (OATA L57C/W58L/I261A): 13,757%; Conversion (%) OATAW58L (OATA W58L [2]): 91%
CC(=O)C(C)C [Ketone 1m, 3-methyl 2-butanone]	78			26	21	29	29	
CC(=O)CC(C)C [Ketone 1n, 4-methyl-2-pentanone]	61			41	46	38	35	
CCC(C)=O [Ketone 2-butanone, 2-butanone]	78			20	16	25	17	
Cc1cccc(C)c1OCC(C)N (centres unmarked) [Mexiletine, reference compound]		197	284					
CC(C)=O [acetone]				18	19	19	18	
CC(=O)CO [hydroxyacetone]	23			42	31	44	32	
COCC(C)=O [methoxyacetone]	424			166	135	159	152	
CC(=O)C(=O)O [pyruvate, pyruvic acid]								Relative activity, OATA L57A/W58A/V154A (OATA L57A/W58A/V154A [6]): 1,190%; Relative activity, OATA L57A/W58A (OATA L57A/W58A [7]): 707%; Fold-increase in kcat/KM (OATA W58L [12]): 0.41; decrease in specificity constant (kcat/KM) (OATA W58L [12]): 60%; fold increase in turnover number (kcat) (OATA W58L [12]): 7.1; weaker binding, fold decrease in KM as printed (OATA W58L [12]): 17.5; Relative activity, OATA L57A (OATA L57A [8]): 77%
(S)-sec-butylamine		66	266					
cyclpropyl methyl ketone [Ketone 1o]	4			17	14	19	14	
